We go through 16 compounds from patent US11254686B1 (Corvus Pharmaceuticals, Inc., priority 2017, dated 2022).

The structures appear in SMILES notation.

In experiment [1] the target is T1, adenosine A3 receptor (Homo sapiens (Human), UniProt P0DMS8). Nature of the experiment: A3 cAMP IC50 assay (Table 1). Type of experiment: biochemical.
In a further experiment the target is adenosine A2A receptor (Homo sapiens (Human), UniProt P29274). As to the kind of experiment: Adenosine receptor activity assay (Table 1), A2A activity. Type of experiment: biochemical. The following applies: read-out: Ave A2A cAMP IC50.
Sequence of adenosine A2A receptor (P29274 whole entry): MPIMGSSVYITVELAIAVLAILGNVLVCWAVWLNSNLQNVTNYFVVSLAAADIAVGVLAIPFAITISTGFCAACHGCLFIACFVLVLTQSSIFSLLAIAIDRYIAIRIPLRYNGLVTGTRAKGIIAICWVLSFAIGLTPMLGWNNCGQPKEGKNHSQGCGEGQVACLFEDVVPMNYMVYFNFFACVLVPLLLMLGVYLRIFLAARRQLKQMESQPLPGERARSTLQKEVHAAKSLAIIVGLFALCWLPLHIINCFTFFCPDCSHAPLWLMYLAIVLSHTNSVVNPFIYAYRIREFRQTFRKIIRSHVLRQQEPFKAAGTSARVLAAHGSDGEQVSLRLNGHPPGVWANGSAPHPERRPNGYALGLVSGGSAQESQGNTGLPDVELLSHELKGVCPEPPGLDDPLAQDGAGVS
In experiment [2] the target is T2, adenosine A1 receptor (Homo sapiens (Human), UniProt P30542). Nature of the experiment: A1 cAMP IC50 assay (Table 1). Type of experiment: biochemical.
T2 sequence (P30542 whole entry): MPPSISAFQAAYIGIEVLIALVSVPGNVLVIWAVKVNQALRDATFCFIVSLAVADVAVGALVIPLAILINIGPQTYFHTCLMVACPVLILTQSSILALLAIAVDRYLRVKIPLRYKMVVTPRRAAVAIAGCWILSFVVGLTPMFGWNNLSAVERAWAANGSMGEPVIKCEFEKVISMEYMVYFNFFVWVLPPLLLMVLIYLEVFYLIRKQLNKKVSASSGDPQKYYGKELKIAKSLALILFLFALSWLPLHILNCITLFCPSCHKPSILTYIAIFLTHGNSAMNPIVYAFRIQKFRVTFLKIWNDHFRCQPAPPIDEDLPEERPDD
Another experiment addresses adenosine A2B receptor (Homo sapiens (Human), UniProt P29275). As to the kind of experiment: Adenosine receptor activity assay (Table 1), A2B activity. Type of experiment: biochemical. The following applies: for Ratio: A2A activity to A2B activity (A2A/A2B); for IC50: read-out: Ave A2B cAMP IC50.
The target in experiment [3] is T2, adenosine A1 receptor. Nature of the experiment: Adenosine receptor activity assay (Table 1), A1 cAMP. Type of experiment: cell-based.
Experiment [4] concerns the target T1, adenosine A3 receptor. Nature of the experiment: Adenosine receptor activity assay (Table 1), A3 cAMP. Type of experiment: cell-based.

Sequence of adenosine A2B receptor (P29275 whole entry): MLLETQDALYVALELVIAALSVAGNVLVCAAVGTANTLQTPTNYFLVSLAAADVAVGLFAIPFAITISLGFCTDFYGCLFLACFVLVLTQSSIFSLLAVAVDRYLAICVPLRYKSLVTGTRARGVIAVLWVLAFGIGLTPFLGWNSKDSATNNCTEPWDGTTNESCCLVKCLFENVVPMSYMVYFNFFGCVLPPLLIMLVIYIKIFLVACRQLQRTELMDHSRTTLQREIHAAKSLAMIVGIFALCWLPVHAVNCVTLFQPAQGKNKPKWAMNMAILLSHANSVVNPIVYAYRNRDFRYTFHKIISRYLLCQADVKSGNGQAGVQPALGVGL
T1 sequence (P0DMS8 whole entry): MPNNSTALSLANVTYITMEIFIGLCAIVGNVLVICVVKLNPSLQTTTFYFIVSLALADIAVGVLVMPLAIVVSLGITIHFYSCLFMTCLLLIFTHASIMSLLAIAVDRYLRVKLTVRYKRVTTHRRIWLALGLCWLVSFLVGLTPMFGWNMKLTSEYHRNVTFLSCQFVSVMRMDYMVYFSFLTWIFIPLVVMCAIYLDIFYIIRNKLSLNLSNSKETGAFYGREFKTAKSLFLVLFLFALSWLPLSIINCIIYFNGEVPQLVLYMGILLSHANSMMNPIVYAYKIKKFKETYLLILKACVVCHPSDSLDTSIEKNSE

`C[C@H](Nc1nc(C(=O)NC2CC2)c2sccc2n1)c1ccccn1` [Example Z192, (S)—N-Cyclopropyl-2-((1-(pyridin-2-yl)ethyl)amino)thieno[3,2-d]pyrimidine-4-carboxamide]: the IC50 against adenosine A3 receptor [1] is more than 500 nM; on adenosine A2A receptor, 10 to 50 nM; at adenosine A1 receptor [2], 50 to 100 nM; at adenosine A2B receptor, less than 10 nM. Further, the Ratio at adenosine A2B receptor stood at 6.93.

`COCCNC(=O)c1nc(N[C@@H](C)c2ccccn2)nc2ccsc12` [Example Z144, (S)—N-(2-Methoxyethyl)-2-((1-(pyridin-2-yl)ethyl)amino)thieno[3,2-d]pyrimidine-4-carboxamide]: the concentration for half-maximal inhibition (IC50) against adenosine A3 receptor [1] was 50 to 100 nM; on adenosine A2A receptor it was 50 to 100 nM; against adenosine A1 receptor [2] it was more than 500 nM; at adenosine A2B receptor, 10 to 50 nM. At adenosine A2B receptor, the Ratio turned out to be 1.52.

With `C[C@H](Nc1nc(C(=O)N2CCC2)c2sc(N)cc2n1)c1ccccn1` [Example Z189, (S)-(6-Amino-2-((1-(pyridin-2-yl)ethyl)amino)thieno[3,2-d]pyrimidin-4-yl)(azetidin-1-yl)methanone], the half-maximal inhibitory concentration (IC50) was 50 to 100 nM at adenosine A3 receptor [1], 100 to 500 nM at adenosine A2A receptor, more than 500 nM on adenosine A1 receptor [2] and less than 10 nM at adenosine A2B receptor. Also, the Ratio at adenosine A2B receptor is 36.15.

Take `C[C@H](Nc1nc(C(=O)N[C@H]2C[C@@H](O)C2)c2sccc2n1)c1ccccn1` [Example Z158, N-((1s,3R)-3-Hydroxycyclobutyl)-2-(((S)-1-(pyridin-2-yl)ethyl)amino)thieno[3,2-d]pyrimidine-4-carboxamide]: the IC50 was more than 500 nM against adenosine A3 receptor [1], 10 to 50 nM at adenosine A2A receptor, 100 to 500 nM against adenosine A1 receptor [2] and less than 10 nM at adenosine A2B receptor.

Consider `O=C(c1nc(NCc2cccc(F)c2)nc2ccsc12)N1CCCC1` [Example Z84, (2-((3-Fluorobenzyl)amino)thieno[3,2-d]pyrimidin-4-yl)(pyrrolidin-1-yl)methanone], for which the IC50 at adenosine A3 receptor [1] was more than 500 nM; at adenosine A2A receptor it was more than 500 nM; on adenosine A1 receptor [2], more than 500 nM; on adenosine A2B receptor, 10 to 50 nM. The Ratio on adenosine A2B receptor came to 18.10.

With `CC(C)(C)OC(=O)N[C@@H]1CCN(C(=O)c2nc(NCc3cc(F)cc(F)c3)nc3ccsc23)C1` [Example Z167, tert-Butyl (R)-(1-(2-((3,5-difluorobenzyl)amino)thieno[3,2-d]pyrimidine-4-carbonyl)pyrrolidin-3-yl)carbamate], the half-maximal inhibitory concentration (IC50) is 50 to 100 nM against adenosine A3 receptor [1], 100 to 500 nM at adenosine A2A receptor, more than 500 nM against adenosine A1 receptor [2] and 10 to 50 nM on adenosine A2B receptor. Further, the Ratio at adenosine A2B receptor is listed as 16.55.

Take `CNc1cc2nc(NCc3ccccn3)nc(C(=O)N3CCCC3)c2s1` [Example Z160, (6-(Methylamino)-2-((pyridin-2-ylmethyl)amino)thieno[3,2-d]pyrimidin-4-yl)(pyrrolidin-1-yl)methanone]: the half-maximal inhibitory concentration (IC50) at adenosine A3 receptor [1] is 50 to 100 nM; at adenosine A2A receptor, more than 500 nM; against adenosine A1 receptor [2], more than 500 nM; at adenosine A2B receptor, 10 to 50 nM. In addition, at adenosine A2B receptor, the Ratio turned out to be 22.65.

On to `Cc1cc2nc(N[C@@H](C)c3cncc(F)c3)nc(C(=O)N3CC[C@@H](CO)C3)c2s1` [Example Z310, (2-(((S)-1-(5-Fluoropyridin-3-yl)ethyl)amino)-6-methylthieno[3,2-d]pyrimidin-4-yl)((R)-3-(hydroxymethyl)pyrrolidin-1-yl)methanone], for which the 50% inhibitory concentration (IC50) was more than 500 nM at adenosine A1 receptor [3], 100 to 500 nM at adenosine A2A receptor, less than 10 nM on adenosine A2B receptor and more than 500 nM against adenosine A3 receptor [4]. Moreover, the Ratio at adenosine A2B receptor is 71.73.

As to `Cc1cc2nc(N[C@@H](C)c3cncc(F)c3)nc(C(=O)NC[C@@H]3CCOC3)c2s1` [Example Z389, 2-(((S)-1-(5-Fluoropyridin-3-yl)ethyl)amino)-6-methyl-N—(((S)-tetrahydrofuran-3-yl)methyl)thieno[3,2-d]pyrimidine-4-carboxamide], the concentration for half-maximal inhibition (IC50) was 50 to 100 nM against adenosine A1 receptor [3], more than 500 nM on adenosine A2A receptor, less than 10 nM at adenosine A2B receptor and 50 to 100 nM on adenosine A3 receptor [4]. Besides, the Ratio at adenosine A2B receptor amounted to 50.96.

On to `CC(=O)N[C@H]1CCN(C(=O)c2nc(N[C@@H](C)c3cncc(F)c3)nc3cc(C)sc23)C1` [Example Z383, N—((S)-1-(2-(((S)-1-(5-Fluoropyridin-3-yl)ethyl)amino)-6-methylthieno[3,2-d]pyrimidine-4-carbonyl)pyrrolidin-3-yl)acetamide], for which the concentration for half-maximal inhibition (IC50) on adenosine A1 receptor [3] is more than 500 nM; at adenosine A2A receptor it was more than 500 nM; at adenosine A2B receptor, 10 to 50 nM; against adenosine A3 receptor [4], 10 to 50 nM. In addition, at adenosine A2B receptor, the Ratio is reported as 55.83.

Regarding `C[C@H](Nc1nc(C(=O)N2CC[C@H](O)C2)c2sc(C(F)(F)F)cc2n1)c1cncc(F)c1` [Example Z346, (2-(((S)-1-(5-Fluoropyridin-3-yl)ethyl)amino)-6-(trifluoromethyl)thieno[3,2-d]pyrimidin-4-yl)((S)-3-hydroxypyrrolidin-1-yl)methanone], the IC50 is more than 500 nM at adenosine A1 receptor [3], more than 500 nM at adenosine A2A receptor, less than 10 nM at adenosine A2B receptor and more than 500 nM on adenosine A3 receptor [4]. For the same compound, the Ratio at adenosine A2B receptor came out at 448.66.

Regarding `COC1CN(C(=O)c2nc(N[C@@H](C)c3ccccn3)nc3cc(C)sc23)C1` [Example Z300, (S)-(3-Methoxyazetidin-1-yl)(6-methyl-2-((1-(pyridin-2-yl)ethyl)amino)thieno[3,2-d]pyrimidin-4-yl)methanone], the IC50 against adenosine A1 receptor [3] was 50 to 100 nM; on adenosine A2A receptor, 10 to 50 nM; at adenosine A2B receptor, less than 10 nM; at adenosine A3 receptor [4] it was 50 to 100 nM. Further, on adenosine A2B receptor, the Ratio is 21.89.

Turning to `CO[C@@H]1CCN(C(=O)c2nc(N[C@@H](C)c3cncc(F)c3)nc3cc(C)sc23)C1` [Example Z302, (2-(((S)-1-(5-Fluoropyridin-3-yl)ethyl)amino)-6-methylthieno[3,2-d]pyrimidin-4-yl)((R)-3-methoxypyrrolidin-1-yl)methanone], the concentration for half-maximal inhibition (IC50) on adenosine A1 receptor [3] was more than 500 nM; on adenosine A2A receptor it was 50 to 100 nM; on adenosine A2B receptor, less than 10 nM; on adenosine A3 receptor [4] it was 50 to 100 nM. Also, the Ratio at adenosine A2B receptor amounted to 35.54.

As to `C[C@H](Nc1nc(C(=O)N2CCCC2)c2sc(N)cc2n1)c1cncc(F)c1` [Example Z223, (S)-(6-Amino-2-((1-(5-fluoropyridin-3-yl)ethyl)amino)thieno[3,2-d]pyrimidin-4-yl)(pyrrolidin-1-yl)methanone], the IC50 is more than 500 nM at adenosine A1 receptor [3], 100 to 500 nM on adenosine A2A receptor, less than 10 nM at adenosine A2B receptor and more than 500 nM at adenosine A3 receptor [4]. Further, the Ratio at adenosine A2B receptor is given as 158.10.

Consider `Cc1cc2nc(N[C@@H](C)c3cncc(F)c3)nc(C(=O)NC[C@H]3CCOC3)c2s1` [Example Z390, 2-(((S)-1-(5-fluoropyridin-3-yl)ethyl)amino)-6-methyl-N—(((R)-tetrahydrofuran-3-yl)methyl)thieno[3,2-d]pyrimidine-4-carboxamide], for which the IC50 against adenosine A1 receptor [3] is 50 to 100 nM; on adenosine A2A receptor, 100 to 500 nM; on adenosine A2B receptor, less than 10 nM; against adenosine A3 receptor [4], 50 to 100 nM. In addition, the Ratio on adenosine A2B receptor is 68.99.

Turning to `C[C@H](Nc1nc(C(=O)NCCc2ccncc2)c2sccc2n1)c1cncc(F)c1` [Example Z382, (S)-2-((1-(5-Fluoropyridin-3-yl)ethyl)amino)-N-(2-(pyridin-4-yl)ethyl)thieno[3,2-d]pyrimidine-4-carboxamide], the half-inhibitory concentration (IC50) was more than 500 nM at adenosine A1 receptor [3], more than 500 nM on adenosine A2A receptor, 10 to 50 nM on adenosine A2B receptor and more than 500 nM against adenosine A3 receptor [4]. On adenosine A2B receptor, the Ratio is reported as 18.44.

The IC50 is the concentration that inhibits the measured activity by half.
